The subject of one data set is lung fibroblasts. Nature of the data set: Stressed collagen lattice contraction assay. To be noted: peptide 60 minutes before gel release; compared to control gels and L-9K treated gels; preliminary. It counts as cell-based, rat.
The next data set relates to PC12-ES cells. Put plainly: Evoked neurotransmitter secretion by undifferentiated PC12-ES cells, furin inhibitor and arginine rich peptides. Conditions: potassium 80 mM, 15 minutes. In kind it is cell-based, rat.
The subject of the next data set is rat lung fibroblast (LF). Put plainly: Cell contraction/relaxation on wrinkling silicone substrate, live videomicroscopy. In kind it is cell-based. Conditions: 10 μM and 50 μM. Here is the method:
To study the effect(s) of the peptides on muscle cells, which associate with neurosecretory cells at neuromuscular junctions, peptides were cultured with rat lung fibroblast (LF) grown over wrinkling substrate (silicon) which can mimic the effects of contraction. These cells have a myofibroblastic phenotype, e.g., production of TGF-β, which make them suitable for cellular contraction/relaxation studies.
Wrinkling silicone substrates were prepared as essentially described previously (Harris, et al., Science. 208:177-179, 1980; Hinz, et al., Mol Biol Cell. 12:2730-41, 2001). Briefly, 50 μl of silicone (poly dimethyl siloxane; 30.000 centistokes, Dow Corning, Midland, Mich.) were deposited onto a 35 mm round glass coverslip at the bottom of a self-made observation chamber, which was centrifuged at 1.000 rpm for 2 minutes to spread the viscous fluid. The silicone surface was then crosslinked by passing it through a Bunsen flame; a flaming time of 1 second produced a surface stiffness that restricted wrinkle formation to fibroblasts with high contractile force (Hinz et al., supra). The polymerized silicone surface was finally coated with 10 μg/ml collagen type I (Sigma) for 2 hours at 37° C. Lung fibroblast cells were seeded at a density of 3.5×10^3 cells/cm^2 and cultured for 1-2 days before the experiment. […]

Data set [1] deals with PC12 cells. Put plainly: Inhibition of [3H]norepinephrine neurosecretion by PC12 cells. It counts as cell-based, rat. To be noted: for inhibition of secretion, stability test: 100 μM. As to the method:
Using the neurosecretion assay described above, peptides fused to the TAT-PTD (L-TAT) were tested for inhibition of neurotransmitters and compared to use of L-TAT alone (SEQ ID NO: 3). In vitro screening for synthetic peptides capable of efficiently and selectively blocking neurotransmitter release in the PC12 cell line grown under defined conditions was performed.
PC12 cells were washed with DMEM-WM (Dulbecco's Modified Eagle Medium (GIBCO cat. no. 31968) completed with 25 units of penicillin and streptomycin each) and loaded for 1-2 h with [^3H] norepinephrine (NE; 0.5 μCi/ml) in DMEM-CM (DMEM-WM complemented with 6% horse serum and 6% fetal calf serum). Cells were washed for 1 h with DMEM-WM, and then washed 2 times at 5-minute intervals. Basal release was determined by a 15-minutes incubation with CaSB-glucose 5 mM K^+ (CaSB-glucose: 140 mM NaCl, 5 mM KCl, 2 mM CaCl2, 11 mM glucose, [pH 7.4]). The peptides were added to the cells at defined concentrations after loading with NE but before induction of secretion. Cells were depolarized with 85 mM K^+ (CaSB-glucose with Na^+ reduced accordingly) for 15 minutes to determine stimulated release. Superfusate (1 ml) was removed to tubes. Adherent cells were solubilized in CaSB-glucose-0.1% Triton (1 ml/well). The quantities of released and non-released radiolabeled neurotransmitter were determined by liquid scintillation counting of cleared superfusates and cell lysates, respectively. Total uptake was calculated by addition of released and retained radioactivity, and the percentage release was as calculated (released counts/total uptake counts)×100. Results were also expressed as percent inhibition of neurosecretion.

The subject of data set [2] is PC12 cells. It counts as cell-based, rat. Here is the method:
[…]. Very little toxicity was present at 24 hours, and cytotoxicity at 48 hours was only slightly greater than at 24 hours. Cytotoxicity generally dipped to approximately 90% live cells when peptides were administered at 500 μM.

Read-outs that look alike come from different tables or passages of the source.

In the case of `N=C(N)NCCC[C@H](NC(=O)CNC(=O)[C@H](Cc1ccc(O)cc1)NC(=O)CN)C(=O)N[C@@H](CCCCN)C(=O)N[C@@H](CCCCN)C(=O)N[C@@H](CCCNC(=N)N)C(=O)N[C@@H](CCCNC(=N)N)C(=O)N[C@@H](CCC(N)=O)C(=O)N[C@@H](CCCNC(=N)N)C(=O)N[C@@H](CCCNC(=N)N)C(=O)N[C@@H](CCCNC(=N)N)C(=O)NCC(=O)O` [L-Tat], in the data set on lung fibroblasts, the “myofibroblast-mediated collagen gel contraction” value is reported as “decrease”. Further, the entries for the “inhibition of evoked neurotransmitter secretion by PC12-ES cells” value in the data set on PC12-ES cells (10 μM) and in the data set on PC12-ES cells (100 μM) were 24.6% and 56.4%, respectively. In addition, in the data set with rat lung fibroblast (LF), the “relaxing effect on lung myofibroblasts on silicon substrate” value is “slow but constant loss of silicon substrate wrinkles and cell detachment”. In addition, the “dose dependence of inhibition of neurosecretion” value was “dose dependent inhibition” in the data set with PC12 cells [1] and “dose dependent” with PC12 cells [1] (listed as L-Bel1). Also, the “inhibition of secretion, stability test” value in the data set with PC12 cells [1] (0 hours) was 50%; in the data set on PC12 cells [1] (1 hour), 38%; with PC12 cells [1] (24 hours), 35%; in the data set with PC12 cells [1] (48 hours) it was 39%; in the data set with PC12 cells [1] (No Serum) it was 65%. Moreover, the “inhibition of PC12 neurotransmitter secretion” value in the data set with PC12 cells [1] (peptide 10 μM) is reported as greater than 20%; in the data set with PC12 cells [1] (peptide 50 μM), 50%; in the data set with PC12 cells [1] (peptide 100 μM), 55%; with PC12 cells [1] (peptide 100 μM, listed as L-Bel1), “more than 60%”; in the data set with PC12 cells [1] (peptide 250 μM) it was 70%. Moreover, the “cytotoxicity (MTT)” value with PC12 cells [2] was “no marked cytotoxicity”.

The values above are taken from patent US8318898B2, “Synthetic peptides for use as inhibitors of neurotransmitter secretion and as inducers of cellular relaxation” (Universite de Lausanne, priority 2005, dated 2012).
